According to ChEMBL document CHEMBL1130966, “Dibasic benzo[b]thiophene derivatives as a novel class of active site directed thrombin inhibitors. 2. Exploring interactions at the proximal (S2) binding site” (Bioorg Med Chem Lett, 1998):

Target: Prothrombin (Homo sapiens) (UniProt P00734)
Assay: Binding affinity for human alpha-thrombin

Row | Compound | K ass
1 | Fc1cc(Cc2c(-c3ccc(OCCN4CCCC4)cc3)sc3ccccc23)ccc1OCCN1CCCC1 | 4.87e+06 l M-1
2 | Nc1cc(Cc2c(-c3ccc(OCCN4CCCC4)cc3)sc3ccccc23)ccc1OCCN1CCCC1 | 1.1e+06 l M-1
3 | Brc1cc(OCCN2CCCC2)ccc1Cc1c(-c2ccc(OCCN3CCCC3)cc2)sc2ccccc12 | 270000 l M-1
4 | CCCCc1cc(Cc2c(-c3ccc(OCCN4CCCC4)cc3)sc3ccccc23)ccc1OCCN1CCCC1 | 420000 l M-1
5 | Cc1cc(Cc2c(-c3ccc(OCCN4CCCC4)cc3)sc3ccccc23)ccc1OCCN1CCCC1 | 2.42e+07 l M-1
6 | O=[N+]([O-])c1cc(Cc2c(-c3ccc(OCCN4CCCC4)cc3)sc3ccccc23)ccc1OCCN1CCCC1 | 1.02e+07 l M-1
7 | O=S(=O)(Nc1cc(Cc2c(-c3ccc(OCCN4CCCC4)cc3)sc3ccccc23)ccc1OCCN1CCCC1)c1ccccc1 | 220000 l M-1
8 | Brc1cc(Cc2c(-c3ccc(OCCN4CCCC4)cc3)sc3ccccc23)ccc1OCCN1CCCC1 | 2.75e+07 l M-1
9 | CCc1cc(Cc2c(-c3ccc(OCCN4CCCC4)cc3)sc3ccccc23)ccc1OCCN1CCCC1 | 7.27e+06 l M-1
10 | FC(F)(F)c1cc(Cc2c(-c3ccc(OCCN4CCCC4)cc3)sc3ccccc23)ccc1OCCN1CCCC1 | 2.4e+06 l M-1

Next, values leading:

Row | K ass | Compound
11 | 1.1e+06 l M-1 | Oc1cc(Cc2c(-c3ccc(OCCN4CCCC4)cc3)sc3ccccc23)ccc1OCCN1CCCC1
12 | 290000 l M-1 | CCNc1cc(Cc2c(-c3ccc(OCCN4CCCC4)cc3)sc3ccccc23)ccc1OCCN1CCCC1
13 | 1.22e+07 l M-1 | COc1cc(Cc2c(-c3ccc(OCCN4CCCC4)cc3)sc3ccccc23)ccc1OCCN1CCCC1
14 | 310000 l M-1 | CC(=O)Nc1cc(Cc2c(-c3ccc(OCCN4CCCC4)cc3)sc3ccccc23)ccc1OCCN1CCCC1
15 | 1.02e+06 l M-1 | CCCc1cc(Cc2c(-c3ccc(OCCN4CCCC4)cc3)sc3ccccc23)ccc1OCCN1CCCC1
16 | 410000 l M-1 | CS(=O)(=O)Nc1cc(Cc2c(-c3ccc(OCCN4CCCC4)cc3)sc3ccccc23)ccc1OCCN1CCCC1
